Measured values: patent US4020111A, “Propynyloxy alkyl arene insecticides” (priority 1975, dated 1977)

Assays:
mice [1] = assay: synergism of acute toxicity of Dimetilan, GS 13005, Secobarbital and Methadone (intraperitoneal); assay type: in vivo, Swiss albino white male mice; details: for number of mice dead: 48 hours, of eight mice
Method in brief: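 Male Swiss albino mice (5–6 weeks, 23–27 g), eight per dose; synergist in corn oil given i.p. 1 h before i.p. insecticide or drug (drugs in distilled water). Lethality recorded over at least 6 h; controls received corn oil plus agent alone.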

mice [2] = assay: extension of Noludar sleeping time by synergists; assay type: in vivo, Swiss albino white male mice; details: Noludar 110 mg/K, synergist 110 mg/K; for Relative Sleeping Time: treated/control
Method in brief: (§1)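 Swiss albino male mice (~38 days, 25-30 g) given synergist at 74.0 or 110.0 mg/kg in corn oil 1 h before Secobarbital 37.0 mg/kg or Noludar 110.0 mg/kg in water. Sleeping time measured from drug dosing to righting-reflex recovery; relative sleeping time = treated ÷ drug-only control.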

[3] = test system: polyvalent resistant (CH strain) houseflies; assay: whole plant or invertebrate; assay type: in vivo, housefly (CH strain); details: CH strain
mice [4] = assay: extension of Secobarbital sleeping time by synergists; assay type: in vivo, Swiss albino white male mice; details: Secobarbital 37 mg/K; for Relative Sleeping Time: treated/control
Method in brief: as §1

[5] = Dimetilan 8 mg/kg + synergist 80 mg/kg ip
[6] = Dimetilan 8 mg/kg + synergist 240 mg/kg ip
[7] = Dimetilan 2 + synergist 4 μg/fly
[8] = GS 13005 1 + synergist 2 μg/fly
[9] = GS 13798 1 + synergist 2 μg/fly
[10] = Pyrethrum 2 + synergist 4 μg/fly
[11] = Diazinon 5 + synergist 10 μg/fly
[12] = GS 13005 71 mg/kg + synergist 213 mg/kg
[13] = Methadone 32 mg/kg + synergist 215 mg/kg
[14] = Secobarbital 90 mg/kg + synergist 215 mg/kg

Structure (SMILES)	number of mice dead (mice [1]; [5])	number of mice dead (mice [1]; [6])	Mean Sleeping Time (mice [2])	Relative Sleeping Time (mice [2])	percent kill after 24 hours [3, 7]	percent kill after 24 hours [3, 8]	percent kill after 24 hours [3, 9]	percent kill after 24 hours [3, 10]	Mean Sleeping Time (mice [4]; synergist 74 mg/K)	Relative Sleeping Time (mice [4]; synergist 74 mg/K)	Mean Sleeping Time (mice [4]; synergist 110 mg/K)	Relative Sleeping Time (mice [4]; synergist 110 mg/K)	percent kill after 24 hours [3, 11]	mice lethality (number dead) (mice [1]; [12])	mice lethality (number dead) (mice [1]; [13])	mice lethality (number dead) (mice [1]; [14])
C#CCON=C(C)c1ccc(Cl)cc1 [I-D]	1	6	58 min	1.5	100%	100%	100%	67%	62 min	1.9	56 min	1.7	–	–	–	–
C#CCON=C(C)c1ccc2ccccc2c1 [I-F]	0	4	55 min	1.4	100%	100%	95%	35%	32 min	1.1	70 min	2.2	–	–	–	–
C#CCON=Cc1ccc(Cl)cc1Cl [I-G]	–	0	48 min	1.2	–	100%	–	47%	27 min	1.0	55 min	1.7	–	–	–	–
C#CCOCc1ccc(Cl)c(Cl)c1 [II-C]	–	0	50 min	1.3	100%	75%	92%	50%	–	–	33 min	1.0	95%	–	–	–
C#CCOCc1ccc(Cl)c(Cl)c1Cl [II-D]	–	0	46 min	1.0	100%	95%	100%	30%	–	–	60 min	1.2	60%	3	2	1
C#CCOCc1c(Cl)ccc(Cl)c1Cl [II-E]	–	0	45 min	1.1	100%	100%	100%	78%	–	–	44 min	1.4	65%	–	–	–
C#CCOCc1c(Cl)cccc1[N+](=O)[O-] [II-K]	0	6	75 min	2.4	–	–	–	–	48 min	1.5	44 min	2	–	3	2	1
